pIC50, pKi: −log10 of the molar value. Structures can show the parent of a compound that is named as a salt. Where two headings read alike, the source gives them in different places.

A word on the pKi: it is the Ki on a negative log10 scale, so that one unit is a factor of ten. Broadly, the pIC50 is the negative decadic logarithm of the IC50, by convention in mol/L.

Assay [1] has as its target human CDK4 and genetically truncated (1-264) cyclin D3 (Homo sapiens, UniProt P11802). Kind of assay: Inhibition of CDK4/Cyclin D Retinoblastoma Kinase Activity. Format: biochemical. The following applies: apparent Ki, CDK4/truncated cyclin D3, Rb fragment substrate, 25 μM ATP. An outline of the steps: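 Apparent Ki values derive from fitting activity at varied inhibitor concentrations to a competitive (or competitive tight-binding) model. Kinase reactions used 5 nM CDK4/cyclin D3(1-264), Rb fragment substrate and 25 μM ATP. Incubation ran 20 min at 30 °C, extended to 60 min under linear conditions for tight binders.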

The test system of assay [2] is HCT-116 cell line. As to the kind of experiment: Inhibition of cell growth, tetrazolium salt (MTT) assay. The note with it: Homo sapiens, HCT-116, 120 h, MTT, three to five days, read-out: HCT-116 IC50. Format: cell-based. In short, it runs like this: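 First, cells were seeded in McCoy's 5A medium and held 4 h. Next, inhibitor concentrations in 0.5% (v/v) DMSO were applied for three to five days at 37° C, 5% CO2. Finally, after 4 h with 0.2 mg/mL MTT and medium removal, solubilized formazan was measured at 540 nm.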

Assay [3] concerns the target CDK2/Cyclin A (Homo sapiens, UniProt P24941). As to the kind of experiment: Inhibition of CDK2/Cyclin A Retinoblastoma Kinase Activity. The following applies: apparent Ki, CDK2/proteolyzed cyclin A, Rb fragment substrate, 25 μM ATP. Format: biochemical. In short, it runs like this:
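Percent inhibition is calculated against DMSO-only wells after subtracting no-enzyme background. The enzyme is human CDK2 complexed with proteolyzed cyclin A, used at 10 nM or 19 nM on an Rb fragment with 25 μM [32/33P]ATP, at pH 7.4 and 30° C.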

Chain of human CDK4 and genetically truncated (1-264) cyclin D3 (P11802 whole entry, the tested form may be a part): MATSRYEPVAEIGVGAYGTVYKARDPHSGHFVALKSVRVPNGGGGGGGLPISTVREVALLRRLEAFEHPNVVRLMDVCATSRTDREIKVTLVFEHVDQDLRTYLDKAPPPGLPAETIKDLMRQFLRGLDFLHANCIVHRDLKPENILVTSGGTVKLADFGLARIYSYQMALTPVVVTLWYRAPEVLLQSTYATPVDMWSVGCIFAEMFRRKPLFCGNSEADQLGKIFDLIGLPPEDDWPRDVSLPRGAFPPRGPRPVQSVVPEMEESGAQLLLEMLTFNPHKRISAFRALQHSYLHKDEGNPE
Chain of human CDK4 and genetically truncated (1-264) cyclin D3 (P30281 1-264 partner): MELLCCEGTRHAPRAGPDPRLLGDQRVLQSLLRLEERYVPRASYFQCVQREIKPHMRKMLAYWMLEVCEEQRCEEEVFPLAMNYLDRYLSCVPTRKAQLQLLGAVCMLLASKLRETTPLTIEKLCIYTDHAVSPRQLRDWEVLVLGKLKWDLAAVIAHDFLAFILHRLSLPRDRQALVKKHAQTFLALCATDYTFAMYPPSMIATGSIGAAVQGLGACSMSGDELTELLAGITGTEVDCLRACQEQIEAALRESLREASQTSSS

As to `Nc1nc(NC2CCN(S(=O)(=O)c3ccc(OCCNC4CC4)nc3)CC2)sc1C(=O)c1c(F)cccc1F` [Example H21, (4-Amino-2-{1-[6-(2-cyclopropylamino-ethoxy)-3-sulfonyl]-piperidin-4-ylamino}-thiazol-5-yl)-(2,6-difluoro-phenyl)-methanone Hydrochloride Salt], the negative-log Ki (pKi) was 9.55 in assay [1] and 8.82 in assay [3]. The pIC50 in assay [2] (first HCT-116 column (c4)) is 6.96; in assay [2] (second HCT-116 column (c5)), 5.82.
For `Nc1nc(NC2CCN(S(=O)(=O)c3cnc(OCCN4CCOCC4)nc3)CC2)sc1C(=O)c1c(F)cccc1F` [Example H22, (4-Amino-2-{1-[2-(2-morpholin4-yl-ethoxy)-pyrimidine-5-sulfonyl]-piperidin-4-ylamino}-thiazol-5-yl)-(2,6-difluoro-phenyl)-methanone Trifluoroacetic Acid Salt] the same measures were 8.96, 8.92, 6.92 and 6.52.
For `Nc1nc(NC2CCN(S(=O)(=O)c3cnc(OCCN4CCCCC4)nc3)CC2)sc1C(=O)c1c(F)cccc1F` [Example H23, (4-Amino-2-{1-[2-(2-piperidin-1-yl-ethoxy)-pyrimidine-5-sulfonyl]-piperidin-4-ylamino}-thiazol-5-yl)-(2,6-difluoro-phenyl)-methanone Trifluoroacetic Acid Salt] the same measures were 9.28, 8.82, 7.03 and 5.82.
For `CN(C)CCOc1ncc(S(=O)(=O)N2CCC(Nc3nc(N)c(C(=O)c4c(F)cccc4F)s3)CC2)cn1` [Example H24, (4-Amino-2-{1-[2-(2-dimethylamino-ethoxy)-pyrimidine-5-sulfonyl]-piperidin-4-ylamino}-thiazol-5-yl)-(2,6-difluoro-phenyl)-methanone Trifluoroacetic Acid Salt] the same measures were 9.39, 8.74, 6.85 and 5.70.
Consider `CN(C)CCOc1nc(S(=O)(=O)N2CCC(Nc3nc(N)c(C(=O)c4c(F)cccc4F)s3)CC2)cn1C` [Example H25, (4-Amino-2-{1-[2-(2-dimethylamino-ethoxy)-1-methyl-1H-imidazole-4-sulfonyl]-piperidin-4-ylamino}-thiazol-5-yl)-(2,6-difluoro-phenyl)-methanone Hydrochloride Salt], for which the pKi is 7.08 in assay [1] and 7.70 in assay [3]. The pIC50 in assay [2] (first HCT-116 column (c4)) and in assay [2] (second HCT-116 column (c5)) was less than 5.30 each time.
Consider `CN1CCC[C@@H](Oc2ccc(S(=O)(=O)N3CCC(Nc4nc(N)c(C(=O)c5c(F)cccc5F)s4)CC3)cn2)C1` [Example H26, (4-Amino-2-{1-[6-(1-methyl-piperidin-3R-yloxy)-pyridine-3-sulfonyl]-piperidin-4-ylamino}-thiazol-5-yl)-(2,6-difluoro-phenyl)-methanone Hydrochloride], for which the pKi in assay [1] was 8.89; in assay [3], 9.43. The negative-log IC50 (pIC50) in assay [2] (first HCT-116 column (c4)) was 7.66; in assay [2] (second HCT-116 column (c5)) it was 7.10.
`CN1CC[C@@H](Oc2ccc(S(=O)(=O)N3CCC(Nc4nc(N)c(C(=O)c5c(F)cccc5F)s4)CC3)cn2)C1` [Example H27, (4-Amino-2-{1-[6-(1-methyl-pyrrolidin-3R-yloxy)-pyridine-3-sulfonyl]-piperidin-4-ylamino}-thiazol-5-yl)-(2,6-difluoro-phenyl)-methanone Hydrochloride]: the pKi in assay [1] was 9.01; in assay [3], 9.46. The pIC50 in assay [2] (first HCT-116 column (c4)) is 7.10; in assay [2] (second HCT-116 column (c5)), 6.54.
For `CN1CC[C@H](Oc2ccc(S(=O)(=O)N3CCC(Nc4nc(N)c(C(=O)c5c(F)cccc5F)s4)CC3)cn2)C1` [Example H28, (4-Amino-2-{1-[6-(1-methyl-pyrrolidin-3S-yloxy)-pyridine-3-sulfonyl]-piperidin-4-ylamino}-thiazol-5-yl)-(2,6-difluoro-phenyl)-methanone Hydrochloride] the same measures were 9.00, 9.39, 7.31 and 6.80.
Take `CN1CCC[C@H](Oc2ccc(S(=O)(=O)N3CCC(Nc4nc(N)c(C(=O)c5c(F)cccc5F)s4)CC3)cn2)C1` [Example H29, (4-Amino-2-{1-[6-(1-methyl-piperidin-3S-yloxy)-pyridine-3-sulfonyl]-piperidin-4-ylamino}-thiazol-5-yl)-(2,6-difluoro-phenyl)-methanone Hydrochloride]: the figures for the pKi in assay [1] and in assay [3] were 8.89 and 9.28, respectively. Also, the pIC50 is 7.44 in assay [2] (first HCT-116 column (c4)) and 6.52 in assay [2] (second HCT-116 column (c5)).
For `Nc1nc(NC2CCN(S(=O)(=O)c3ccc(-c4ncc[nH]4)nc3)CC2)sc1C(=O)c1c(F)cccc1F` [Example I1, 1-(4-Amino-2-{1-[6-(1H-imidazol-2-yl)-pyridine-3-sulfonyl]-piperidin-4-ylamino}-thiazol-5-yl)-1-(2,6-difluoro-phenyl)-methanone Hydrochloride] the same measures were 9.25, 9.59, 6.52 and 6.30.
For `Cc1c[nH]c(-c2ccc(S(=O)(=O)N3CCC(Nc4nc(N)c(C(=O)c5c(F)cccc5F)s4)CC3)cn2)n1` [Example I2, 1-(4-Amino-2-{1-[6-(4-methyl-1H-imidazol-2-yl)-pyridine-3-sulfonyl]-piperidin-4-ylamino}-thiazol-5-yl)-1-(2,6-difluoro-phenyl)-methanone Hydrochloride] the same measures were 9.14, 9.39, 6.62 and 5.85.
For `Cn1ccnc1-c1ccc(S(=O)(=O)N2CCC(Nc3nc(N)c(C(=O)c4c(F)cccc4F)s3)CC2)cn1` [Example I3, 1-(4-Amino-2-{1-[6-(1-methyl-1H-imidazol-2-yl)-pyridine-3-sulfonyl]-piperidin-4-ylamino}-thiazol-5-yl)-1-(2,6-difluoro-phenyl)-methanone Trifluoroacetic Acid Salt] the same measures were 8.70, 8.77, 6.80 and 6.30.
As to `Nc1nc(NC2CCN(S(=O)(=O)c3ccc(Cc4ncc[nH]4)nc3)CC2)sc1C(=O)c1c(F)cccc1F` [Example I4, 1-(4-Amino-2-{1-[6-(1H-imidazol-2-ylmethyl)-pyridine-3-sulfonyl]-piperidin-4-ylamino}-thiazol-5-yl)-1-(2,6-difluoro-phenyl)-methanone Hydrochloride], the pKi was 8.74 in assay [1] and more than 9.00 in assay [3]. In addition, the negative logarithm of the IC50 (pIC50) in assay [2] (first HCT-116 column (c4)) was 5.72; in assay [2] (second HCT-116 column (c5)), 5.33.
For `Cn1cnc(-c2ccc(S(=O)(=O)N3CCC(Nc4nc(N)c(C(=O)c5c(F)cccc5F)s4)CC3)cn2)c1` [Example I5, Hydrochloride] the same measures were 9.17, 8.29, 7.10 and 6.30.
For the compound `Nc1nc(NC2CCN(S(=O)(=O)c3ccc(-c4cccnc4)nc3)CC2)sc1C(=O)c1c(F)cccc1F` [Example I6, 1-{4-Amino-2-[1-([2,3′]bipyridinyl-5-sulfonyl)-piperidin-4-ylamino]-thiazol-5-yl}-1-(2,6-difluoro-phenyl)-methanone Hydrochloride], the pKi in assay [1] was 9.43; in assay [3], 9.49. Besides, the negative logarithm of the IC50 (pIC50) in assay [2] (first HCT-116 column (c4)) was 7.43; in assay [2] (second HCT-116 column (c5)), 6.96.
For `Nc1nc(NC2CCN(S(=O)(=O)c3ccc(-c4ccncc4)nc3)CC2)sc1C(=O)c1c(F)cccc1F` [Example I7, 1-{4-Amino-2-[1-([2,4′]bipyridinyl-5-sulfonyl)-piperidinin-4-ylamino]-thiazol-5-yl}-1-(2,6-difluoro-phenyl)-methanone] the same measures were 9.42, more than 9.00, 5.89 and 5.30.
For `Nc1nc(NC2CCN(S(=O)(=O)c3ccc(-c4cccnc4)cc3)CC2)sc1C(=O)c1c(F)cccc1F` [Example I8, 1-{4-Amino-2-[1-(4-pyridin-3-yl-benzenesulfonyl)-piperidin-4-ylamino]-thiazol-5-yl}-1-(2,6-difluoro-phenyl)-methanone Trifluoroacetic Acid Salt] the same measures were 9.32, 9.52, 7.15 and 6.30.
Regarding `CN(C)CCCc1ccc(S(=O)(=O)N2CCC(Nc3nc(N)c(C(=O)c4c(F)cccc4F)s3)CC2)cc1` [Example I10, 1-(4-Amino-2-{1-[4-(3-dimethylamino-propyl)-benzenesulfonyl]-piperidin-4-ylamino}-thiazol-5-yl)-1-(2,6-difluoro-phenyl)-methanone D-Glucuronic Acid Salt], the pKi was 9.17 in assay [1] and 8.92 in assay [3]. Further, the values for the negative logarithm of the IC50 (pIC50) in assay [2] (first HCT-116 column (c4)) and in assay [2] (second HCT-116 column (c5)) were 6.70 and 5.72, respectively.
